Experimental data published in patent publication US9738932B2, “Biomarkers for cardiovascular side-effects induced by cox-2 inhibitory compounds” (FIRALIS SAS, priority 2005, dated 2017).

Tests used:
[1] = tested on: mRNA expression in cardiovascular tissues; settings: cynomolgus monkey, in vivo, 2 weeks
[2] = tested on: mRNA expression in cardiovascular tissues; experiment: Affymetrix GeneChip mRNA expression profiling of monkey tissues (iliac vein, pulmonary vein, aorta, carotid artery, heart) after two-week oral-gavage treatment; settings: iliac vein; group average (Vioxx without A60055)

Cc1ccc(-c2cc(C(F)(F)F)nn2-c2ccc(S(N)(=O)=O)cc2)cc1 [Celebrex]
2.3 fold: CD53 (203416_at) mRNA expression, Avg fold changes vs control [2]
1.1 fold: IFIT2 (217502_at) avg fold change vs control [1] | IFITM3 (212203_x_at) avg fold change vs control [1] | IL27RA (205926_at) avg fold change vs control [1] | ITGB2 (202803_s_at) avg fold change vs control [1] | KLKB1 (206541_at) avg fold change vs control [1] | LILRB3 (208594_x_at) avg fold change vs control [1] | PLSCR1 (202446_s_at) avg fold change vs control [1] | PRC1 (218009_s_at) avg fold change vs control [1] | TAPBP (208829_at) avg fold change vs control [1] | GP6 (220336_s_at) mRNA expression, Avg fold changes vs control [2] | HLA-A (210514_x_at) mRNA expression, Avg fold changes vs control [2] | STAT1 (200887_s_at) mRNA expression, Avg fold changes vs control [2] | STAT1 (AFFX-HUMISGF3A/M97935_3_at) mRNA expression, Avg fold changes vs control [2] | TMSB10 (217733_s_at) mRNA expression, Avg fold changes vs control [2]
0.7 fold: PCOLCE (202465_at) avg fold change vs control [1]
0.8 fold: IFIT1 (203153_at) avg fold change vs control [1] | IFIT4 (204747_at) avg fold change vs control [1] | TLR2 (204924_at) avg fold change vs control [1] | ACE (209749_s_at) mRNA expression, Avg fold changes vs control [2] | FKBP11 (219117_s_at) mRNA expression, Avg fold changes vs control [2] | THY1 (213869_x_at) mRNA expression, Avg fold changes vs control [2]
1.5 fold: LY86 (205859_at) avg fold change vs control [1] | LYN (210754_s_at) avg fold change vs control [1] | TNFAIP3 (202643_s_at) avg fold change vs control [1] | XLKD1 (219059_s_at) avg fold change vs control [1] | CD2 (205831_at) mRNA expression, Avg fold changes vs control [2] | HCLS1 (202957_at) mRNA expression, Avg fold changes vs control [2] | HEM1 (209734_at) mRNA expression, Avg fold changes vs control [2] | TNFRSF21 (218856_at) mRNA expression, Avg fold changes vs control [2]
3.8 fold: IL2RG (204116_at) avg fold change vs control [1]
2.5 fold: PTPN22 (206060_s_at) avg fold change vs control [1] | PTPRC (207238_s_at) avg fold change vs control [1] | TRB@ (210915_x_at) mRNA expression, Avg fold changes vs control [2]
3.2 fold: LCK (204890_s_at) avg fold change vs control [1]
1.9 fold: LCP2 (205270_s_at) avg fold change vs control [1] | VCAM1 (203868_s_at) avg fold change vs control [1]
2.0 fold: XCL1 (206366_x_at) avg fold change vs control [1] | PTPN7 (204852_s_at) mRNA expression, Avg fold changes vs control [2]
0.9 fold: IGF1 (209541_at) avg fold change vs control [1] | JAK1 (214377_s_at) avg fold change vs control [1] | SOCS3 (206360_s_at) avg fold change vs control [1] | STAT1 (AFFX-HUMISGF3A/M97935_5_at) avg fold change vs control [1] | BCL6 (215990_s_at) mRNA expression, Avg fold changes vs control [2] | CCR1 (205098_at) mRNA expression, Avg fold changes vs control [2] | EMP3 (203729_at) mRNA expression, Avg fold changes vs control [2] | ICAM1 (202637_s_at) mRNA expression, Avg fold changes vs control [2] | IL13RA1 (210904_s_at) mRNA expression, Avg fold changes vs control [2] | TCIRG1 (204158_s_at) mRNA expression, Avg fold changes vs control [2] | TMPO (209753_s_at) mRNA expression, Avg fold changes vs control [2]
1.7 fold: TNFAIP3 (202644_s_at) avg fold change vs control [1] | CD48 (204118_at) mRNA expression, Avg fold changes vs control [2] | CYBB (203922_s_at) mRNA expression, Avg fold changes vs control [2] | PIK3CD (203879_at) mRNA expression, Avg fold changes vs control [2]
3.5 fold: XCL1 (214567_s_at) avg fold change vs control [1]
1.4 fold: LILRB1 (211100_x_at) avg fold change vs control [1] | LY96 (206584_at) avg fold change vs control [1] | TNFSF6 (210865_at) avg fold change vs control [1] | FCGR2A (203561_at) mRNA expression, Avg fold changes vs control [2]
2.7 fold: STAT1 (209969_s_at) avg fold change vs control [1]
1.3 fold: IFI30 (201422_at) avg fold change vs control [1] | IFI44 (214453_s_at) avg fold change vs control [1] | LILRB3 (210225_x_at) avg fold change vs control [1] | MAF (209348_s_at) avg fold change vs control [1] | STAT1 (AFFX-HUMISGF3A/M97935_MA_at) avg fold change vs control [1] | TLR1 (210176_at) avg fold change vs control [1] | cig5 (213797_at) avg fold change vs control [1] | B2M (216231_s_at) mRNA expression, Avg fold changes vs control [2] | CDC2 (210559_s_at) mRNA expression, Avg fold changes vs control [2] | FCER1G (204232_at) mRNA expression, Avg fold changes vs control [2] | HLA-A (213932_x_at) mRNA expression, Avg fold changes vs control [2]
1.2 fold: PRG1 (201859_at) avg fold change vs control [1] | STAT1 (AFFX-HUMISGF3A/M97935_MB_at) avg fold change vs control [1] | TRGC2 (211144_x_at) avg fold change vs control [1] | BTN2A2 (205298_s_at) mRNA expression, Avg fold changes vs control [2] | HLA-E (200904_at) mRNA expression, Avg fold changes vs control [2] | HLA-F (221978_at) mRNA expression, Avg fold changes vs control [2] | PRKCBP1 (209048_s_at) mRNA expression, Avg fold changes vs control [2] | PRKCBP1 (209049_s_at) mRNA expression, Avg fold changes vs control [2] | SIGIRR (52940_at) mRNA expression, Avg fold changes vs control [2]
3.3 fold: IFI27 (202411_at) avg fold change vs control [1]
0.4 fold: IL1A (208200_at) avg fold change vs control [1]
1.0 fold: IFITM2 (201315_x_at) avg fold change vs control [1] | LILRB1 (207857_at) avg fold change vs control [1] | PLCL2 (216217_at) avg fold change vs control [1] | PRG1 (201858_s_at) avg fold change vs control [1] | TCTEL1 (201999_s_at) avg fold change vs control [1] | FCGRT (218831_s_at) mRNA expression, Avg fold changes vs control [2] | FKBP11 (219118_at) mRNA expression, Avg fold changes vs control [2] | HLA-C (211799_x_at) mRNA expression, Avg fold changes vs control [2] | STAT3 (208992_s_at) mRNA expression, Avg fold changes vs control [2]
1.6 fold: ICSBP1 (204057_at) avg fold change vs control [1] | INDO (210029_at) avg fold change vs control [1] | INPP5D (203332_s_at) avg fold change vs control [1] | TRGC2 (216920_s_at) avg fold change vs control [1]
0.6 fold: IGFBP4 (201508_at) avg fold change vs control [1]
2.4 fold: TRB@ (213193_x_at) mRNA expression, Avg fold changes vs control [2]
